Laboratory results as given in ChEMBL document CHEMBL1201862, “PubChem BioAssay data set” (2004).
Active and inactive are the calls of the source.

Experiments:
[1] = molecular target: T1, Heat shock factor protein 1 (Mus musculus, UniProt P38532); experiment: enhancement of HSF1-driven luciferase signal – cell-based, NIH3T3, luminescence, dose retest, confirmation (AID 435004); format: functional;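 note: stress induced by proteasome inhibitor MG132 added 30 min after compound; luciferase reporter driven by HSF1 response element in NIH3T3 cells; actives raise luminescence as potentiators of the MG132 stress response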
T1 sequence (P38532 whole entry): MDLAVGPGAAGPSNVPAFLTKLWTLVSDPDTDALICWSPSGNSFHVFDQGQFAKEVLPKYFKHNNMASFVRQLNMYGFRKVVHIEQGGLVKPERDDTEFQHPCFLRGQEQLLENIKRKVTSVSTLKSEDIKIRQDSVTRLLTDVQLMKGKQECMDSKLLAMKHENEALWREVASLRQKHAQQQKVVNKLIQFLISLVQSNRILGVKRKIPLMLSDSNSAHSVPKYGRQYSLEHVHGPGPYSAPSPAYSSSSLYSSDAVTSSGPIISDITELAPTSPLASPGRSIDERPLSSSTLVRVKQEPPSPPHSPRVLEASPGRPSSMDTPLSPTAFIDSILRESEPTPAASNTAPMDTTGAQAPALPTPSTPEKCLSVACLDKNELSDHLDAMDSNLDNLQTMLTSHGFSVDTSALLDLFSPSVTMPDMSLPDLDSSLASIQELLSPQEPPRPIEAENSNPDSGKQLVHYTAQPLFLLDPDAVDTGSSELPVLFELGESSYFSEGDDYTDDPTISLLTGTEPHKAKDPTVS

[2] = NIH3T3 cell viability loss – ATP luminescence, mouse fibroblasts, counter-screen, dose response (AID 2010); format: functional, cell-based;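 note: cells exposed to compound for about 90 hours before reading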
[3] = molecular target: Melanocortin receptor 4 (Homo sapiens, UniProt P32245); format: functional, cell-based;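 note: Cell-based assay with luminescence read-out, confirmatory dose-response testing for agonist activity of biased ligands at MC4R; human U2OS cells with tagged receptor and beta-arrestin; potency of agonists that increase receptor coupling to beta-arrestin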
[4] = Trypanosoma cruzi growth suppression in host cells – NIH3T3 host cells, beta-gal luminescence, confirmation (AID 2044); format: functional, cell-based;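 note: intracellular parasites grown in NIH/3T3 mouse fibroblasts as host cells; luminescent beta-galactosidase reporter signal from transgenic T. cruzi replicating inside host cells; inhibitors lower the luminescence signal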
[5] = molecular target: T2, X-box-binding protein 1 (Homo sapiens, UniProt P17861); format: functional, Cricetulus griseus;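 note: confirmatory dose-response counter-screen serving a CHOP assay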
T2 sequence (P17861 whole entry): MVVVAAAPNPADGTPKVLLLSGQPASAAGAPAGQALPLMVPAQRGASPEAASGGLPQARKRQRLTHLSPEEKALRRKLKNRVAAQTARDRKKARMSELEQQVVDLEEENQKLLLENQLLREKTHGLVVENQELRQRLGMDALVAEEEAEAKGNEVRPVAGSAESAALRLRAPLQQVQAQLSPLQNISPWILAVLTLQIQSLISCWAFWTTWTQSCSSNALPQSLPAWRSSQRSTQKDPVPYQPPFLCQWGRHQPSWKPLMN

[6] = molecular target: Beta-2 adrenergic receptor (Homo sapiens, UniProt P07550); experiment: ADRB2 activation measured by internalization – cell-based, FAP fluorogen, flow cytometry, cherry pick 1, dose response (AID 588763); format: functional
[7] = molecular target: T3, Apoptotic protease-activating factor 1 (Homo sapiens, UniProt O14727); experiment: SAR analysis of small molecule Activators of Apaf-1 in a Fluorescent assay.; format: functional; settings: read-out: EC50_Mean;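 note: caspase-3 cleavage of fluorogenic Rh110 DEVD substrate downstream of apoptosome activation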
T3 sequence (O14727 whole entry): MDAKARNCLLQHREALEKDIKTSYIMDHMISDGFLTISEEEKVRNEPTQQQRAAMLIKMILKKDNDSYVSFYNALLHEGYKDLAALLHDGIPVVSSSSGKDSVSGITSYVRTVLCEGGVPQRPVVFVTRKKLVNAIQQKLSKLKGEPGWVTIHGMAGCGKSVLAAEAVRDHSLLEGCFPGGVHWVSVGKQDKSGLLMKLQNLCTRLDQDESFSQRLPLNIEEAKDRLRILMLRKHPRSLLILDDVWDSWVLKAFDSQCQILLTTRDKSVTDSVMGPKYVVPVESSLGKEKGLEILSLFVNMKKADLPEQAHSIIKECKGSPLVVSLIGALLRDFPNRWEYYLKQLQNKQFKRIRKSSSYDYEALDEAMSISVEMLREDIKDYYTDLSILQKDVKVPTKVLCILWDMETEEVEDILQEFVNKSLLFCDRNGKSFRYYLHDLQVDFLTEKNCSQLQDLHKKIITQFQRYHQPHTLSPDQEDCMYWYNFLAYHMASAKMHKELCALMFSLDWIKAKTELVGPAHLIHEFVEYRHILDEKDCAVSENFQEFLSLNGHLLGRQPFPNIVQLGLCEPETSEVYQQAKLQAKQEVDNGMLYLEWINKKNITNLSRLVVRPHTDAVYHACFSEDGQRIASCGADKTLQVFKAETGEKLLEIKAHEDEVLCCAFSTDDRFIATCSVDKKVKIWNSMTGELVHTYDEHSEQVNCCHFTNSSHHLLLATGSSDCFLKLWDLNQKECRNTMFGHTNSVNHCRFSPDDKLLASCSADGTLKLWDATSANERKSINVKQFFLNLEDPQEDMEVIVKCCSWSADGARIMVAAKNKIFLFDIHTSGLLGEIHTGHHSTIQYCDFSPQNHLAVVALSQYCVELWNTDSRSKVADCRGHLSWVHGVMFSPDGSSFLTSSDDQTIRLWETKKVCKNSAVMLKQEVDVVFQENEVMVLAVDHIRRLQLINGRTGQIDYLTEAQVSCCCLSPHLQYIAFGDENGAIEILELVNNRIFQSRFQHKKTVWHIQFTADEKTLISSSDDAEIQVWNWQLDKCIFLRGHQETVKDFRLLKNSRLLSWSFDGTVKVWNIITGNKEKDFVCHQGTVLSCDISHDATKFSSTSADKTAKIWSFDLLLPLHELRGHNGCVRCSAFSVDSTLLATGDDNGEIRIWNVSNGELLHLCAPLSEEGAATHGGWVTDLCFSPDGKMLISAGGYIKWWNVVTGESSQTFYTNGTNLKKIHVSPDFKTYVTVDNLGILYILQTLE

[8] = tested on: P388/ADR; experiment: cells; format: functional; settings: Mus musculus
[9] = tested on: SN12K1; experiment: cells; format: functional; settings: Homo sapiens
[10] = tested on: P388; experiment: cells; format: functional; settings: Mus musculus

Sequence of Melanocortin receptor 4 (P32245 whole entry): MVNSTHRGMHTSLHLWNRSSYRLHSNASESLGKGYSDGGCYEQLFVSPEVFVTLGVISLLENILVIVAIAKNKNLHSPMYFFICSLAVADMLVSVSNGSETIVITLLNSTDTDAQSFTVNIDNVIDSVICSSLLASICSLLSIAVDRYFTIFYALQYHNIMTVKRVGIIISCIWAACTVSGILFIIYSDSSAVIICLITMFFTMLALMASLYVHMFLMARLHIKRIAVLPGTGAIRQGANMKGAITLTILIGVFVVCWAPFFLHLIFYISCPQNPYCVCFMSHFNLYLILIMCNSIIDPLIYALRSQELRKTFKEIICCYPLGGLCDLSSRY
Sequence of Beta-2 adrenergic receptor (P07550 whole entry): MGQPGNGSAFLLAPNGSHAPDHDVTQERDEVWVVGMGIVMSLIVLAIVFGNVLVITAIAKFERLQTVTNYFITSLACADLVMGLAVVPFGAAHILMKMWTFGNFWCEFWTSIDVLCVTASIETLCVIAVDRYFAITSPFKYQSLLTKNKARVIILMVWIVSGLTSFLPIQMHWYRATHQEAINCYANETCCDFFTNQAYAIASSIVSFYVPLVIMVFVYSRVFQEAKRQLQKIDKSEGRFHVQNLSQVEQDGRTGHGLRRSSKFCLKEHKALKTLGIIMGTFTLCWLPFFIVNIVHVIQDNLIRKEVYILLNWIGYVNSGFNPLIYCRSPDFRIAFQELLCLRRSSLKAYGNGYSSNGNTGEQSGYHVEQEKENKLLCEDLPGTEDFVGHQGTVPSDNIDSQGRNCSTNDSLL

| Structure (SMILES) | GI50 [8] | GI50 [9] | GI50 [10] | further results |
| --- | --- | --- | --- | --- |
| Cc1ccc(C2=NN(C(=O)c3cccs3)C(c3ccccc3O)C2)cc1 (stereo not drawn) |  |  |  | EC50 [1]: > 260 µM (inactive); EC50 [2]: > 60 µM (not active); EC50 [3]: > 89.2 µM (inactive); EC50 [4]: 2.49 µM (active); Absolute IC50 (XBP1) [5]: 10 µM |
| NC(c1ccccc1)c1csc(NC(=O)Nc2ccccc2Oc2ccccc2)n1 (stereo not drawn) |  |  |  | EC50 [3]: > 89.2 µM (inactive) |
| O=C(COc1ccccc1F)N1c2ccccc2CCc2ccccc21 |  |  |  | EC50 [6]: 1.6 µM (active) |
| Cc1ccc(N2C(=O)CC3(CC(c4ccc(Br)cc4)=NO3)C2=O)cc1 (stereo not drawn) |  |  |  | EC50 [7]: > 100 µM (inactive) |
| COCCOCOc1ccc(OCc2ccccc2)cc1 | 24 µM (inactive) | > 100 µM (inactive) | 31.3 µM (inactive) |  |
| O=C(O)[C@@H]1COC(c2ccccc2C(F)(F)F)=N1 |  |  |  | EC50 [7]: > 100 µM (inactive) |
| COc1cc2c(cc1Oc1ccc(OC)c3c1CC1c4c(cc(OC)c(OC)c4-3)CCN1C)CC1c3c(cc(OC)c(OC)c3-2)CCN1C (stereo not drawn) | 1.87 µM (inactive) | 0.424 µM (active) | 1.77 µM (inactive) |  |
| Cc1ccccc1-c1nc2c(C(=O)NCCN(C)C)cccc2[nH]1 | 26.5 µM (inactive) | 30.5 µM (inactive) | 16.3 µM (inactive) |  |
